≈ marks a conversion by molar mass, not a printed value. Like-named read-outs stand apart in the source and are kept apart here.
Legend:
[1] = target: T1, full-length beta-Catenin (Uniprot ID P35222) (Homo sapiens, UniProt P35222); assay: Fluorescence polarization IC50 (beta-catenin / 5FAM-TCF4 10-53 competition); format: binding
T1 construct: 10 nM full-length beta-Catenin (Uniprot ID P35222)
T1 sequence (P35222 1-781): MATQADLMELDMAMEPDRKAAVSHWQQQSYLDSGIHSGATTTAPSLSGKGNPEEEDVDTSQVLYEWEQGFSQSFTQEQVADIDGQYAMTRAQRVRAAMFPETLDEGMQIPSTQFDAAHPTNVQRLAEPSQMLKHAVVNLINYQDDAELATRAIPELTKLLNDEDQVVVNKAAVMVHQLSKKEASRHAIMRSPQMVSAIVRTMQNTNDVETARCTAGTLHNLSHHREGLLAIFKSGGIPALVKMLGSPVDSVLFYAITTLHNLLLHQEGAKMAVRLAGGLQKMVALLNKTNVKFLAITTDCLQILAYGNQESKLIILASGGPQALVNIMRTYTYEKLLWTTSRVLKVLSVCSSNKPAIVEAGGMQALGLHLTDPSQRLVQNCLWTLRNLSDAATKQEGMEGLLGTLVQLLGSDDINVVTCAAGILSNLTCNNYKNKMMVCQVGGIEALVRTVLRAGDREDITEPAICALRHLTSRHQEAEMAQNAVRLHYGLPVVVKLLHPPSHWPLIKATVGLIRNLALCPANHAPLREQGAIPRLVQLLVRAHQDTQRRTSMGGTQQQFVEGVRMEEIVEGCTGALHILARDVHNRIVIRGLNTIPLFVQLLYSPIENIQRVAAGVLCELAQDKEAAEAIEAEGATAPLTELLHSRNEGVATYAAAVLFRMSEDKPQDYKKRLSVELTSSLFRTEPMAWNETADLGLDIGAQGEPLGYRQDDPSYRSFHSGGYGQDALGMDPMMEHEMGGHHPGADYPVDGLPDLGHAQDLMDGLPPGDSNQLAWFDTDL

[2] = Solubility in PBS; format: physicochemical
Procedure, shortened: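 Steps: ultracentrifuge the peptide PBS solution, inject the supernatant on HPLC, inject a 50 μM peptide DMSO solution as reference, then calculate solubility as area ratio (PBS/DMSO) × 50 uM.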

[3] = CHI Log D procedure; format: physicochemical; details: for CHI Log D: pH 7.4
[4] = fluorescence polarization, read-out: beta-Catenin FP IC50
[5] = read-out: FP EC50, fluorescence polarization, beta-catenin
[6] = Table E2-1, read-out: beta-Catenin FP IC50
[7] = fluorescence polarization, beta-catenin, read-out: FP EC50

SMILES	IC50 [1, 4] [nM]	Solubility [2] [µM]	CHI Log D [3]	Solubility ([2]; Solubility (uM)) [µM]	chromatographic logD ([3]; pH 7.4, CHI Log D)	other results
CC[C@H](C)[C@@H]1NC(=O)[C@H](CC(=O)O)NC(=O)[C@]2(CC=CCCCC3(CCCC=CCCCCCC[C@@](C)(C(=O)N[C@@H](Cc4ccsc4)C(=O)N[C@@H](Cc4csc5ccccc45)C(=O)N[C@@H](CCC(N)=O)C(N)=O)NC(=O)[C@H](CC(N)=O)NC(=O)[C@H](Cc4ccccc4)NC(=O)[C@H](C)NC(=O)[C@H](C)NC(=O)[C@H](CCC(=O)O)NC(=O)[C@H](CC(=O)O)NC3=O)NC1=O)CCCN2C(C)=O (stereo partly drawn) [I-520, Ac-PL3-Asp-Ile-B5-Asp-Glu-Ala-Ala-Phe-Asn-S8-3Thi-BztA-Gln-NH2]	45	50 (≈ 93.8 µg/mL)	2.313			IC50 ([1]; read-out: FP EC50): 45 nM
C[C@@H]1NC(=O)[C@H](C)NC(=O)[C@H](CN(CC(=O)O)CC(F)(F)F)NC(=O)[C@H](Cc2ccsc2)NC(=O)C2(CCCC=CCCCOC(=O)N3CC[C@@](C(=O)N[C@@H](CC(=O)O)C(=O)N[C@@H](Cc4csc5ccccc45)C(=O)N[C@@H](CCC(N)=O)C(N)=O)(C3)NC(=O)[C@H](CC(N)=O)NC(=O)[C@H](Cc3ccccc3)NC1=O)CCCC=CC[C@]1(CCCN1C(=O)CN=[N+]=[N-])C(=O)N[C@@H](CC(=O)O)C(=O)N[C@@H](CC(C)(C)C)C(=O)N2 (stereo partly drawn) [I-1057, AzAc-PL3-Asp-Npg-B5-3Thi-TfeGA-Ala-Ala-Phe-Asn-PyrS2-Asp-BztA-Gln-NH2]		50 (≈ 104 µg/mL)	1.92			IC50 [1, 5]: 6640 nM
CC(=O)N1CCC[C@]12CC=CCCCC1(CCCC=CCCCCCC[C@@](C)(C(=O)N[C@@H](Cc3ccccc3)C(=O)N[C@@H](Cc3csc4ccccc34)C(=O)N[C@@H](Cc3c[nH]cn3)C(=O)NC(C)(C)C(N)=O)NC(=O)[C@H](CC(N)=O)NC(=O)[C@H](Cc3ccccc3)NC(=O)[C@H](C)NC(=O)[C@H](C)NC(=O)[C@H](CCC(=O)O)NC(=O)[C@H](CC(=O)O)NC1=O)NC(=O)[C@H](CC(C)C)NC(=O)[C@H](CC(=O)O)NC2=O (stereo partly drawn) [I-743, Ac-PL3-Asp-Leu-B5-Asp-Glu-Ala-Ala-Phe-Asn-S8-Phe-BztA-His-Aib-NH2]	85			29 (≈ 56.9 µg/mL)	2.6	
CC[C@H](C)[C@@H]1NC(=O)[C@H](CC(=O)O)NC(=O)[C@]2(CC=CCCCC3(CCCC=CCCCCCC[C@@](C)(C(=O)N[C@@H](Cc4ccccc4)C(=O)N[C@@H](Cc4csc5ccccc45)C(=O)N[C@@H](CCC(N)=O)C(N)=O)NC(=O)[C@H](CCC(N)=O)NC(=O)[C@H](Cc4ccccc4)NC(=O)[C@H](C)NC(=O)[C@H](C)NC(=O)[C@H](CCCC(=O)O)NC(=O)[C@H](CC(=O)O)NC3=O)NC1=O)CCCN2C(C)=O (stereo partly drawn) [I-612, Ac-PL3-Asp-Ile-B5-Asp-Aad-Ala-Ala-Phe-Gln-S8-Phe-BztA-Gln-NH2]		49 (≈ 93 µg/mL)		> 25	2.41	IC50 ([1]; read-out: bCat FP IC50): 64 nM; chromatographic logD ([3]; pH 7.4, LogD): 2.4
CC(=O)N1CCC[C@]12CC=CCCCC1(CCCC=CCCCCCC[C@@](C)(C(=O)N[C@@H](Cc3ccccc3C(N)=O)C(=O)N[C@@H](Cc3csc4ccccc34)C(=O)N[C@@H](CCC(N)=O)C(N)=O)NC(=O)[C@H](C(C)C)NC(=O)[C@H](Cc3ccccc3)NC(=O)[C@H](C)NC(=O)[C@H](C)NC(=O)[C@H](CC(=O)O)NC(=O)[C@H](CC(=O)O)NC1=O)NC(=O)[C@H](C)NC(=O)[C@H](CC(=O)O)NC2=O (stereo partly drawn) [I-336, Ac-PL3-Asp-Ala-B5-Asp-Asp-Ala-Ala-Phe-Val-S8-2CBMF-BztA-Gln-NH2]				48 (≈ 88.4 µg/mL)	1.74	IC50 [1, 6]: 153 nM
CC(=O)N1CCC[C@]12CC=CCCCC1(CCCC=CCCCCCC[C@@](C)(C(=O)N[C@@H](Cc3ccccc3)C(=O)N[C@@H](Cc3csc4ccccc34)C(=O)N[C@@H](CCC(N)=O)C(N)=O)NC(=O)[C@H](C)NC(=O)[C@H](Cc3cccc(C(F)(F)F)c3)NC(=O)[C@H](C)NC(=O)[C@H](C)NC(=O)[C@H](CC(=O)O)NC(=O)[C@H](CC(=O)O)NC1=O)NC(=O)[C@H](C)NC(=O)[C@H](CC(=O)O)NC2=O (stereo partly drawn) [I-374, Ac-PL3-Asp-Ala-B5-Asp-Asp-Ala-Ala-3F3MeF-Ala-S8-Phe-BztA-Gln-NH2]		49 (≈ 90.1 µg/mL)	2.242			IC50 [1, 6]: 3010 nM; IC50 [1, 7]: 3010 nM
CC(=O)N1CCC[C@]12CC=CCCCC1(CCCC=CCCCCCC[C@@](C)(C(=O)N[C@@H](Cc3ccsc3)C(=O)N[C@@H](Cc3csc4ccccc34)C(=O)N[C@@H](Cc3c[nH]cn3)C(N)=O)NC(=O)[C@H](CC(N)=O)NC(=O)[C@H](Cc3ccccc3)NC(=O)[C@H](C)NC(=O)[C@H](C)NC(=O)[C@H](CN(CC(=O)O)CC(F)(F)F)NC(=O)[C@H](CC(=O)O)NC1=O)NC(=O)[C@H](CC1CCCCC1)NC(=O)[C@H](CC(=O)O)NC2=O (stereo partly drawn) [I-709, Ac-PL3-Asp-Cha-B5-Asp-TfeGA-Ala-Ala-Phe-Asn-S8-3Thi-BztA-His-NH2]	54	10 (≈ 20.2 µg/mL)			3.11	
CC(=O)N1CCC[C@]12CC=CCCCC1(CCCC=CCCCCCC[C@@](C)(C(=O)N[C@@H](Cc3ccccc3)C(=O)N[C@@H](Cc3csc4ccccc34)C(=O)N[C@@H](CCC(N)=O)C(N)=O)NC(=O)[C@H](C)NC(=O)[C@H](Cc3cccc(C(F)(F)F)c3)NC(=O)[C@H](C)NC(=O)[C@H](C)NC(=O)[C@H](CC(=O)O)NC(=O)[C@H](CC(=O)O)NC1=O)NC(=O)[C@H](C)NC(=O)[C@H](CC(=O)O)NC2=O (stereo partly drawn) [I-377, Ac-PL3-Asp-Ala-B5-Asp-Asp-Ala-Ala-3F3MeF-Ala-S8-Phe-BztA-Gln-NH2]		48 (≈ 88.2 µg/mL)	2.296			IC50 [1, 7]: 1320 nM
CC(=O)N1CCC[C@]12CC=CCCCC1(CCCC=CCCCCCC[C@@](C)(C(=O)N[C@@H](Cc3ccccc3)C(=O)N[C@@H](Cc3csc4ccccc34)C(=O)N[C@@H](CCC(N)=O)C(N)=O)NC(=O)[C@H](C(C)C)NC(=O)[C@H](Cc3cccc(C(F)(F)F)c3)NC(=O)[C@H](C)NC(=O)[C@H](C)NC(=O)[C@H](CC(=O)O)NC(=O)[C@H](CC(=O)O)NC1=O)NC(=O)[C@H](C)NC(=O)[C@H](CC(=O)O)NC2=O (stereo partly drawn) [I-373, Ac-PL3-Asp-Ala-B5-Asp-Asp-Ala-Ala-3F3MeF-Val-S8-Phe-BztA-Gln-NH2]				26 (≈ 48.5 µg/mL)	2.3	IC50 [1, 6]: 945 nM
C[C@@H]1NC(=O)[C@H](C)NC(=O)[C@H](CN(CC(=O)O)CC(F)(F)F)NC(=O)[C@H](Cc2ccsc2)NC(=O)C2(CCCC=CCCCOC(=O)N3CC[C@@](C(=O)N[C@@H](CC(=O)O)C(=O)N[C@@H](Cc4csc5ccccc45)C(=O)N[C@@H](CCC(N)=O)C(N)=O)(C3)NC(=O)[C@H](CC(N)=O)NC(=O)[C@H](Cc3ccccc3)NC1=O)CCCC=CC[C@]1(CCCN1C(=O)CN=[N+]=[N-])C(=O)N[C@@H](CC(=O)O)C(=O)N[C@@H](CC(C)(C)C)C(=O)N2 (stereo partly drawn) [I-1056, AzAc-PL3-Asp-Npg-B5-3Thi-TfeGA-Ala-Ala-Phe-Asn-PyrS2-Asp-BztA-Gln-NH2]		41 (≈ 84.9 µg/mL)	1.929			IC50 [1, 5]: 6490 nM
CC(=O)N1CCC[C@]12CC=CCCCC1(CCCC=CCCCCCC[C@@](C)(C(=O)N[C@@H](Cc3ccccc3)C(=O)N[C@@H](Cc3csc4ccccc34)C(=O)N[C@@H](CCC(N)=O)C(N)=O)NC(=O)[C@H](CCC(N)=O)NC(=O)[C@H](Cc3ccccc3)NC(=O)[C@H](C)NC(=O)[C@H](C)NC(=O)[C@H](CCC(=O)O)NC(=O)[C@H](CC(=O)O)NC1=O)NC(=O)[C@H](CC(F)(F)F)NC(=O)[C@H](CC(=O)O)NC2=O (stereo partly drawn) [I-501, Ac-PL3-Asp-F3CA-B5-Asp-Glu-Ala-Ala-Phe-Gln-S8-Phe-BztA-Gln-NH2]	94	49 (≈ 93.5 µg/mL)	2.138			IC50 ([1]; read-out: FP EC50): 94 nM

From patent US20240116985A1, “STAPLED PEPTIDES AND METHODS THEREOF” (priority 2020, published 2024)
